Data on one compound can be found in patent US12063930B2, “Sulfonamide-containing 4-(N-methyl) aminopiperidine myricetin derivatives, preparation method and application” (Guizhou University, priority 2019, dated 2024).

Like-named read-outs stand apart in the source and are kept apart here.

Assay [1] relates to citrus canker pathogen (Xac). The assay is described as follows: Turbidimetric anti-plant bacterial activity test, citrus canker pathogen. Format: cell-based, Xanthomonas axonopodis pv. citri.
Assay [2] deals with rice bacterial wilt pathogen (Xoo). The assay is classed as cell-based, Xanthomonas oryzae pv. oryzae.
The test system of assay [3] is tobacco bacterial wilt pathogen (Rs). The assay is classed as cell-based, Ralstonia solanacearum.

In the case of `COc1cc(OC)c2c(=O)c(OCCCN(C)C3CCN(S(=O)(=O)c4ccccc4)CC3)c(-c3cc(OC)c(OC)c(OC)c3)oc2c1` [Compound I7], the “Inhibition Rate” value in assay [1] (50 μg/mL) is reported as 89.57 ± 2.14%; in assay [1] (100 μg/mL), 92.48 ± 0.65%; in assay [2] (50 μg/mL), 48.01 ± 3.21%; in assay [2] (100 μg/mL), 53.46 ± 2.80%; in assay [3] (50 μg/mL), 50.24 ± 2.21%; in assay [3] (100 μg/mL) it was 52.83 ± 6.66%.
